These results are taken from US9040545B2, “Heterocyclyl pyrazolopyrimidine analogues as selective JAK inhibitors” (Cellzome Limited, priority 2010, dated 2015).

For the test, the target named is T1, JAK3 (Homo sapiens, UniProt P52333).
T1 construct: endogenous in cells; host or cells: mixed Molt4/Ramos lysate (1:2)
T1 sequence (P52333 1-1124): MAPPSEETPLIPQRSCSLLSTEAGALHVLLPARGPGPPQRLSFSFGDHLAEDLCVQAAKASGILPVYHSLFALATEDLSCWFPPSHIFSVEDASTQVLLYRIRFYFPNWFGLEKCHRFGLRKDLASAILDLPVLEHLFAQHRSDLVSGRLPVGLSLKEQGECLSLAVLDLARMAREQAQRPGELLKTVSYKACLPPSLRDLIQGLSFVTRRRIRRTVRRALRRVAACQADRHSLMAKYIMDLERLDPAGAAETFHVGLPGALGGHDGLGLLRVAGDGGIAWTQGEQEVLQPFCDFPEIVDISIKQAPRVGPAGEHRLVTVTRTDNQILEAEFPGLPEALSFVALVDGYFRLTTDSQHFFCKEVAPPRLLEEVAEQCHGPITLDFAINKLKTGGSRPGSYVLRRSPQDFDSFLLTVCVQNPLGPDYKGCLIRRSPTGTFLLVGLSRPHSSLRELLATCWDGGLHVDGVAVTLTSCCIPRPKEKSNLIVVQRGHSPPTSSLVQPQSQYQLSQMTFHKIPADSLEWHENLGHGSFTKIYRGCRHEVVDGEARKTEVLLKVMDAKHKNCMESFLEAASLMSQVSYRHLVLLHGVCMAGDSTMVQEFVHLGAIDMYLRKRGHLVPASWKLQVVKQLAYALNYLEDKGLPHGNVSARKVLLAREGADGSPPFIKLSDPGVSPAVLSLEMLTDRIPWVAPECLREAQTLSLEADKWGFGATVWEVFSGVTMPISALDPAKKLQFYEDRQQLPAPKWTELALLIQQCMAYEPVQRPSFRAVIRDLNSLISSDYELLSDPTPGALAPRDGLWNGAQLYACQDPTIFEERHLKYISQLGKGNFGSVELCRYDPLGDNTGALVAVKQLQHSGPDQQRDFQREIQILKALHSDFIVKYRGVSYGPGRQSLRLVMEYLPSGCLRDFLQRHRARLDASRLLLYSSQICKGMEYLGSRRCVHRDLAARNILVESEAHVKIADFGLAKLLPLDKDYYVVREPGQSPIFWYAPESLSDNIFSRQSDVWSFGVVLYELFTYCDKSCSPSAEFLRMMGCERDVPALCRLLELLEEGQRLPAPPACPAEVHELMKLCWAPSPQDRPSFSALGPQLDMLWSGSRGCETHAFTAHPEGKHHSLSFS
Nature of the test: Kinobeads assay, JAK3. The class given is binding. The settings on record: mixed Molt4/Ramos lysate, read-out: Inhibition values (IC50) JAK3. In a few lines: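 IC50 values come from dose-response curves of JAK2/JAK3 captured on immobilized aminopyrido-pyrimidine beads, quantified by antibody dot blot with infrared read-out. Compounds (1:3 series, 9 steps, from 5 mM DMSO stock) competed for 3 h in the cold with mixed Molt4/Ramos lysate (1:2, 10 mg/mL protein).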

Usually IC50 stands for the point on the concentration scale where inhibition reaches its midpoint. `O=C(c1cccc(Cn2ncc3cnc(Nc4cnn(CCO)c4)nc32)c1F)N1CCOCC1` [Example 85, (2-Fluoro-3-((6-((1-(2-hydroxyethyl)-1H-pyrazol-4-yl)amino)-1H-pyrazolo[3,4-d]pyrimidin-1-yl)methyl)phenyl)(morpholino)methanone]: the IC50 was under 100 nM.

In the case of `Cn1cc(Nc2ncc3cnn(Cc4c(F)c(F)cc(N5CCOCC5=O)c4F)c3n2)cn1` [Example 61, 4-(2,4,5-Trifluoro-3-((6-((1-methyl-1H-pyrazol-4-yl)amino)-1H-pyrazolo[3,4-d]pyrimidin-1-yl)methyl)phenyl)morpholin-3-one], the IC50 is under 100 nM.

`O=C1COCCN1c1cccc(Cn2ncc3cnc(Nc4cnn(CCO)c4)nc32)c1F` [Example 46, 4-(2-Fluoro-3-((6-((1-(2-hydroxyethyl)-1H-pyrazol-4-yl)amino)-1H-pyrazolo[3,4-d]pyrimidin-1-yl)methyl)phenyl)morpholin-3-one]: the IC50 was under 100 nM.

As for `CN(C)CCCn1cc(Nc2ncc3cnn(Cc4cccc(N5CCOCC5=O)c4F)c3n2)cn1` [Example 50, 4-(3-((6-((1-(3-(Dimethylamino)propyl)-1H-pyrazol-4-yl)amino)-1H-pyrazolo[3,4-d]pyrimidin-1-yl)methyl)-2-fluorophenyl)morpholin-3-one], the IC50 is under 100 nM.

As to `Cn1cc(Nc2ncc3cnn(Cc4c(F)ccc(N5CCNCC5=O)c4F)c3n2)cn1` [Example 76, 1-(2,4-Difluoro-3-((6-((1-methyl-1H-pyrazol-4-yl)amino)-1H-pyrazolo[3,4-d]pyrimidin-1-yl)methyl)phenyl)piperazin-2-one], the IC50 was under 100 nM.

As for `O=C1CNCCN1c1cccc(Cn2ncc3cnc(Nc4cnn(CCO)c4)nc32)c1F` [Example 55, 1-(2-Fluoro-3-((6-((1-(2-hydroxyethyl)-1H-pyrazol-4-yl)amino)-1H-pyrazolo[3,4-d]pyrimidin-1-yl)methyl)phenyl)piperazin-2-one], the IC50 was under 100 nM.

For the compound `O=C1COCCN1c1cc(F)c(F)c(Cn2ncc3cnc(Nc4cnn(CCO)c4)nc32)c1F` [Example 62, 4-(2,4,5-Trifluoro-3-((6-((1-(2-hydroxyethyl)-1H-pyrazol-4-yl)amino)-1H-pyrazolo[3,4-d]pyrimidin-1-yl)methyl)phenyl)morpholin-3-one], the IC50 was under 100 nM.

On to `Cn1cc(Nc2ncc3cnn(Cc4cc(F)cc(N5CCOCC5=O)c4F)c3n2)cn1` [Example 73, 4-(2,5-Difluoro-3-((6-((1-methyl-1H-pyrazol-4-yl)amino)-1H-pyrazolo[3,4-d]pyrimidin-1-yl)methyl)phenyl)morpholin-3-one], for which the IC50 is under 100 nM.

Turning to `O=C1COCCN1c1cc(F)cc(Cn2ncc3cnc(Nc4cnn(CCO)c4)nc32)c1F` [Example 74, 4-(2,5-Difluoro-3-((6-((1-(2-hydroxyethyl)-1H-pyrazol-4-yl)amino)-1H-pyrazolo[3,4-d]pyrimidin-1-yl)methyl)phenyl)morpholin-3-one], the half-maximal inhibitory concentration (IC50) is under 100 nM.

Turning to `COC1CN(c2cccc(Cn3ncc4cnc(Nc5cnn(C)c5)nc43)c2)C1` [Example 65, 1-(3-(3-Methoxyazetidin-1-yl)benzyl)-N-(1-methyl-1H-pyrazol-4-yl)-1H-pyrazolo[3,4-d]pyrimidin-6-amine], the IC50 is under 100 nM.

Regarding `CN(C)CCCn1cc(Nc2ncc3cnn(Cc4c(F)c(F)cc(N5CCOCC5)c4F)c3n2)cn1` [Example 42, N-(1-(3-(Dimethylamino)propyl)-1H-pyrazol-4-yl)-1-(2,3,6-trifluoro-5-morpholinobenzyl)-1H-pyrazolo[3,4-d]pyrimidin-6-amine], the IC50 was under 100 nM.

As to `Fc1cc(N2CCOCC2)c(F)c(Cn2ncc3cnc(Nc4cn[nH]c4)nc32)c1F` [Example 81, N-(1H-Pyrazol-4-yl)-1-(2,3,6-trifluoro-5-morpholinobenzyl)-1H-pyrazolo[3,4-d]pyrimidin-6-amine], the IC50 was under 100 nM.

For the compound `Cn1cc(Nc2ncc3cnn(Cc4cccc(N5CCNCC5=O)c4F)c3n2)cn1` [Example 54, 1-(2-Fluoro-3-((6-((1-methyl-1H-pyrazol-4-yl)amino)-1H-pyrazolo[3,4-d]pyrimidin-1-yl)methyl)phenyl)piperazin-2-one], the IC50 is under 100 nM.

`CN(C)CCCn1cc(Nc2ncc3cnn(Cc4cccc(N5CCOCC5)c4F)c3n2)cn1` [Example 43, N-(1-(3-(Dimethylamino)propyl)-1H-pyrazol-4-yl)-1-(2-fluoro-3-morpholinobenzyl)-1H-pyrazolo[3,4-d]pyrimidin-6-amine]: the IC50 is under 100 nM.

In the case of `Cn1cc(Nc2ncc3cnn(Cc4cc(N5CCNCC5=O)cc(F)c4F)c3n2)cn1` [Example 71, 1-(3,4-Difluoro-5-((6-((1-methyl-1H-pyrazol-4-yl)amino)-1H-pyrazolo[3,4-d]pyrimidin-1-yl)methyl)phenyl)piperazin-2-one], the IC50 is under 100 nM.

Consider `Cn1cc(Nc2ncc3cnn(Cc4cc(N5CCNCC5)cc(F)c4F)c3n2)cn1` [Example 86, 1-(2,3-Difluoro-5-(piperazin-1-yl)benzyl)-N-(1-methyl-1H-pyrazol-4-yl)-1H-pyrazolo[3,4-d]pyrimidin-6-amine], for which the IC50 was under 100 nM.

Consider `OCCn1cc(Nc2ncc3cnn(Cc4cc(N5CCNCC5)cc(F)c4F)c3n2)cn1` [Example 78, 2-(4-((1-(2,3-Difluoro-5-(piperazin-1-yl)benzyl)-1H-pyrazolo[3,4-d]pyrimidin-6-yl)amino)-1H-pyrazol-1-yl)ethanol], for which the IC50 was under 100 nM.

Take `Cn1cc(Nc2ncc3cnn(Cc4cccc(C(=O)N5CCOCC5)c4F)c3n2)cn1` [Example 87, (2-Fluoro-3-((6-((1-methyl-1H-pyrazol-4-yl)amino)-1H-pyrazolo[3,4-d]pyrimidin-1-yl)methyl)phenyl)(morpholino)methanone]: the IC50 was under 100 nM.

For the compound `Cn1cc(Nc2ncc3cnn(Cc4cccc(N5CCOCC5O)c4)c3n2)cn1` (centres unmarked) [Example 88, 4-(3-((6-((1-Methyl-1H-pyrazol-4-yl)amino)-1H-pyrazolo[3,4-d]pyrimidin-1-yl)methyl)phenyl)morpholin-3-ol], the IC50 lay within 100 to 1000 nM.

For the compound `Cn1cc(Nc2ncc3cnn(Cc4cccc(N5CCNCC5)c4F)c3n2)cn1` [Example 67, 1-(2-Fluoro-3-(piperazin-1-yl)benzyl)-N-(1-methyl-1H-pyrazol-4-yl)-1H-pyrazolo[3,4-d]pyrimidin-6-amine], the half-maximal inhibitory concentration (IC50) was under 100 nM.

Consider `O=C1COCCN1c1cc(F)c(F)c(Cn2ncc3cnc(Nc4cnn(CCO)c4)nc32)c1` [Example 59, 4-(3,4-Difluoro-5-((6-((1-(2-hydroxyethyl)-1H-pyrazol-4-yl)amino)-1H-pyrazolo[3,4-d]pyrimidin-1-yl)methyl)phenyl)morpholin-3-one], for which the IC50 was under 100 nM.

In the case of `O=C1CNCCN1c1cc(F)c(F)c(Cn2ncc3cnc(Nc4cnn(CCO)c4)nc32)c1` [Example 72, 1-(3,4-Difluoro-5-((6-((1-(2-hydroxyethyl)-1H-pyrazol-4-yl)amino)-1H-pyrazolo[3,4-d]pyrimidin-1-yl)methyl)phenyl)piperazin-2-one], the IC50 was under 100 nM.

`CN(C)CCCn1cc(Nc2ncc3cnn(Cc4c(F)c(F)cc(N5CCOCC5=O)c4F)c3n2)cn1` [Example 70, 4-(3-((6-((1-(3-(Dimethylamino)propyl)-1H-pyrazol-4-yl)amino)-1H-pyrazolo[3,4-d]pyrimidin-1-yl)methyl)-2,4,5-trifluorophenyl)morpholin-3-one]: the IC50 was under 100 nM.
